From US6083917A, “Methods and compositions for the identification, characterization and inhibition of farnesyltransferase” (Board of Regents, The University of Texas System, priority 1992, dated 2000) come the findings set out here.

For assay [1], the target named is T1, rat brain farnesyltransferase (Rattus norvegicus, UniProt Q02293+Q04631). Put plainly: Farnesyltransferase assay: transfer of [3H]farnesyl from [3H]FPP to p21H-ras (TCA filter assay), competition by peptides. In kind it is biochemical. Also on record: Brains from 50 male Sprague-Dawley rats (100-150 g) were homogenized; from tissue; host or cells: rat brain (male Sprague-Dawley rats). As for the experimental part: Farnesyltransferase activity was determined by measuring the amount of ^3 H-farnesol transferred from all-trans ^3 H]farnesyl pyrophosphate ([^3 H]FPP) to p21^H-ras protein. The standard reaction mixture contained the following concentrations of components in a final volume of 25 μl: 50 mM Tris-chloride (pH 7.5), 50 μM ZnCl2, 20 mM KCl, 1 mM DTT, and 40 μM p21^H-ras. The mixture also contained 10 pmoles of [^3 H]FPP (~30,000 dpm/pmol) and 1.8-3.5 μg of partially purified farnesyltransferase (see below). After incubation for 1 hour at 37° C. in 12×75-mm borosilicate tubes, the reaction was stopped by addition of 0.5 ml of 4% SDS and then 0.5 ml of 30% trichloroacetic acid (TCA).
The tubes were vortexed and left on ice for 45-60 min, after which 2 ml of a 6% TCA/2% SDS solution were added. The mixture was filtered on a 2.5-cm glass fiber filter with a Hoefer filtration unit (FH 225). The tubes were rinsed twice with 2 ml of the same solution, and each filter was washed five times with 2 ml of 6% TCA, dried, and counted in a scintillation counter. One unit of activity is defined as the amount of enzyme that transfers 1 pmol of [^3 H]farnesol from [^3 H]FPP into acid-precipitable p21^H-ras per hour under the standard conditions.
The standard assay involved measuring the amount of [^3 H]farnesyl transferred from all-trans [^3 H]FPP to recombinant human p21^H-ras as described in Example I. Each reaction mixture contained the following concentrations of components in a final volume of 25 μl: 50 mM Tris-chloride (pH 7.5), 50 μM ZnCl2, 30 mM KCl, 1 mM DTT, 30 or 40 μM p21^H-ras, 15 pmol [^3 H]FPP (12-23,000 dpm/pmol), 4 to 7.5 μg of partially purified farnesyltransferase (Mono Q fraction, see Example I), and the indicated concentration of competitor peptide added in 3 μl of 10 mM DTT. […] This blank value was subtracted before calculating "% of control" values.
The amount of [^3 H]farnesyl transferred from all-trans-[^3 H]farnesyl pyrophosphate to recombinant p21^H-ras was measured in a filter assay as previously described (62).

Assay [2] has as its target T1, rat brain farnesyltransferase. Put plainly: Binding of prenyl pyrophosphates to protein farnesyltransferase (gel filtration). Also on record: Protein farnesyltransferase was purified to apparent homogeneity from rat brain homogenates; from tissue; host or cells: rat brain. The settings on record: purified enzyme. An excerpt:
Transfer of the enzyme-bound farnesyl group to the bound p21^H-ras required Mg^2+. […] It also was not transferred to a modified p21^H-ras containing COOH-terminal leucine, a protein that was shown previously to be a good substrate for a rat brain geranylgeranyltransferase (35). The inventors conclude that the protein farnesyltransferase is a metalloenzyme that most likely contains Zn^2+ at the peptide-binding site. It thus resembles certain metallopeptidases, including carboxy-peptidase A and the angiotensin-converting enzyme. Strategies previously developed to screen for inhibitors of those enzymes will likely aid in the search for inhibitors of the protein farnesyltransferase.

For assay [3] the target is unchanged. Kind of assay: Farnesyltransferase assay: transfer of [3H]farnesyl from [3H]FPP to p21H-ras (TCA filter assay), competition by peptides. It counts as biochemical. Also on record: Brains from 50 male Sprague-Dawley rats (100-150 g) were homogenized; from tissue; host or cells: rat brain (male Sprague-Dawley rats). Particulars: Concentration giving 50% inhibition of farnesylation of p21H-ras, FIG. 23A; Mono Q fraction, 0.5 μM [3H]farnesyl pyrophosphate, 30 min at 37° C.

The mark [4] stands for this setting: Table III, six concentrations 0.03 to 10 μM, read-out: Concentration for 50% Inhibition of Farnesylation of p21H-ras.
[5] abbreviates: Concentration giving 50% inhibition of farnesyltransferase (text, FIG. 14 / Table II), Example II, partially purified rat brain enzyme, p21H-ras acceptor.
The mark [6] stands for this setting: Table II, partially purified rat farnesyltransferase, p21H-ras acceptor, seven concentrations 0.03 to 100 μM, read-out: Concentration for 50% Inhibition.

pIC50: −log10 of the molar value. Read-outs that look alike come from different tables or passages of the source. Residues, ends and D or L forms follow the SMILES beside them. No end group written: not given here. *: point of attachment. Octanoyl = CCCCCCCC(=O)*

T1 sequence (Q02293 whole entry, one chain of several): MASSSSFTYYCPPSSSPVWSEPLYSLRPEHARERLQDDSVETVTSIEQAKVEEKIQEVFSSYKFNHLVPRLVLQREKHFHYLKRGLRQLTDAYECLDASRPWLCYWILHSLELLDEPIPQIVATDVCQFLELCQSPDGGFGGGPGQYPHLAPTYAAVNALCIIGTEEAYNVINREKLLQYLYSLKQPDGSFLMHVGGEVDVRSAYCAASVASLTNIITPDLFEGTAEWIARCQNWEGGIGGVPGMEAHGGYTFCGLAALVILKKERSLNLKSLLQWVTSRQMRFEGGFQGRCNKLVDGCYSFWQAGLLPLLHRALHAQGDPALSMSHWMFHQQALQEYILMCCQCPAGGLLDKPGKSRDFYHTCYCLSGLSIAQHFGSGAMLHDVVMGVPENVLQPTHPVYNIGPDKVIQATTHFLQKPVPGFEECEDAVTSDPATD

Regarding Ac-DCVFM [N-AcDCVFM], the pIC50 in assay [1] (setting [4]) was 5.72.
Consider `CSCC[C@H](NC(=O)[C@H](Cc1c[nH]c2ccccc12)NC(=O)[C@@H](NC(=O)[C@@H](N)CS)C(C)C)C(=O)O` [CVWM] (H-CVWM-OH), for which, in assay [1] (setting [4]), the pIC50 is 6.49.
For the compound KCVFM [KCVFM], in assay [1] (setting [4]), the pIC50 was 5.96.
In the case of `CSCC[C@H](NC(=O)[C@H](Cc1ccccc1)NC(=O)[C@@H](NC(=O)[C@H](CS)NC(=O)[C@@H](N)CS)C(C)C)C(=O)O` [CCVFM] (H-CCVFM-OH), the pIC50 in assay [1] (setting [4]) is 6.36.
In the case of `CSCC[C@H](NC(=O)[C@H](Cc1c[nH]c2ccccc12)NC(=O)[C@@H](NC(=O)[C@H](CS)NC(C)=O)C(C)C)C(=O)O` [N-AcCVWM] (Ac-CVWM-OH), the pIC50 in assay [1] (setting [4]) was 5.43.
For the compound `CC[C@H](C)[C@H](NC(=O)[C@@H](NC(=O)[C@@H](N)CS)C(C)C)C(=O)N[C@@H](CCSC)C(=O)O` [CVIM] (H-CVIM-OH), the pIC50 in assay [1] (setting [5]), in assay [1] (setting [6]) and in assay [1] (setting [4]) was 6.82 throughout.
Turning to `CC(C)=CCC/C(C)=C/CC/C(C)=C/CC/C(C)=C/COP(=O)(O)OP(=O)(O)O` [Geranylgeranyl pyrophosphate], in assay [2], the “Affinity for the prenyl pyrophosphate binding site” value was “affinity equal to that of farnesyl pyrophosphate”.
Ac-MCVFM [N-AcMCVFM]: the pIC50 in assay [1] (setting [4]) was 5.85.
On to Ac-ECVFM [N-AcECVFM], for which, in assay [1] (setting [4]), the pIC50 is 5.62.
For `CCCCCCCC(=O)N[C@@H](CS)C(=O)N[C@H](C(=O)N[C@@H](Cc1ccccc1)C(=O)N[C@@H](CCSC)C(=O)O)C(C)C` [N-Octanoyl-CVFM] (Octanoyl-CVFM-OH), the pIC50 in assay [1] (setting [4]) was 6.46.
In the case of `CC[C@H](C)[C@H](NC(=O)[C@H](C)NC(=O)[C@@H](N)CS)C(=O)N[C@@H](CCSC)C(=O)O` [CAIM] (H-CAIM-OH), the pIC50 in assay [1] (setting [5]) and in assay [1] (setting [6]) was 6.82 in each case.
In the case of `CC(C)=CCC/C(C)=C/CC/C(C)=C/COP(=O)(O)OP(=O)(O)O` [[^3 H]farnesyl pyrophosphate, farnesyl pyrophosphate, reference compound], in assay [1] (substrate saturation, FIG. 2A and 2B), the “Concentration that gave half-maximal reaction velocity” value is on record as “approximately 0.5 μM”.
Regarding `CSCC[C@H](NC(=O)[C@@H](NC(=O)[C@@H](NC(=O)[C@@H](N)CS)C(C)C)C(C)C)C(=O)O` [CVVM] (H-CVVM-OH), the pIC50 in assay [1] (setting [6]) was 6.82.
For the compound Ac-KCVFM [N-AcKCVFM], in assay [1] (setting [4]), the pIC50 is 6.52.
On the same count and under the same terms, next, Ac-GCVFM [N-AcGCVFM]: 6.37; Ac-PCVFM [N-AcPCVFM]: 6.70.
Turning to Ac-SCVFM [N-AcSCVFM], in assay [1] (setting [4]), the pIC50 is 6.64.
For Ac-HCVFM [N-AcHCVFM], the pIC50 in assay [1] (setting [4]) is 6.62.
With `CSCC[C@H](NC(=O)[C@H](Cc1ccccc1)NC(=O)[C@@H](NC(=O)[C@H](CS)NC(C)=O)C(C)C)C(=O)O` [N-AcCVFM] (Ac-CVFM-OH), the pIC50 in assay [3] is 6.57; in assay [1] (setting [4]), 6.60.
Take `CC[C@H](C)[C@H](NC(=O)[C@@H](NC(=O)[C@H](CS)NC(C)=O)C(C)C)C(=O)N[C@@H](CCSC)C(=O)O` [N-AcCVIM] (Ac-CVIM-OH): in assay [1] (setting [4]), the pIC50 was 6.82.
Regarding `CC[C@H](C)[C@H](NC(=O)[C@H](CO)NC(=O)[C@@H](N)CS)C(=O)N[C@@H](CCSC)C(=O)O` [CSIM] (H-CSIM-OH), the pIC50 in assay [1] (setting [6]) was 6.70.
Take `CC[C@H](C)[C@H](NC(=O)[C@@H](NC(=O)[C@@H](N)CS)[C@@H](C)CC)C(=O)N[C@@H](CCSC)C(=O)O` [CIIM] (H-CIIM-OH): the pIC50 in assay [1] (setting [6]) is 6.82.
As for `CSCC[C@H](NC(=O)[C@H](Cc1ccccc1)NC(=O)[C@@H](NC(=O)[C@H](CS)NC(=O)[C@H](CS)NC(C)=O)C(C)C)C(=O)O` [N-AcCCVFM] (Ac-CCVFM-OH), the pIC50 in assay [1] (setting [4]) is 6.96.
